Assay results taken from ChEMBL document CHEMBL1201862, “PubChem BioAssay data set” (2004).
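Briefly, cells in 96-well plates were exposed to five compound concentrations for 48 h, and endpoints were estimated by linear interpolation. GI50 marks 50% less growth.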 Calls of active or inactive are those of the source. No stated cut-off is given here; in the data, active = GI50 up to about 1.1 µM and inactive = higher.

How the values were obtained:
Test in all cases: growth of human tumour cells (NCI), 48 h
SNB-75 = tested on: SNB-75
MOLT-4 = tested on: MOLT-4
Malme-3M = tested on: Malme-3M
CAKI-1 = tested on: CAKI-1
RPMI-8226 = tested on: RPMI-8226
SNB-19 = tested on: SNB-19
SK-OV-3 = tested on: SK-OV-3
HL-60 = tested on: HL-60
SK-MEL-5 = tested on: SK-MEL-5
LOX IMVI = tested on: LOX IMVI
NCI-H23 = tested on: NCI-H23
NCI/ADR-RES = tested on: NCI/ADR-RES
HOP-92 = tested on: HOP-92
NCI-H522 = tested on: NCI-H522
NCI-H460 = tested on: NCI-H460
786-0 = tested on: 786-0
ACHN = tested on: ACHN
DU-145 = tested on: DU-145
SR = tested on: SR

Row | SMILES | GI50 (SNB-75) | GI50 (MOLT-4) | GI50 (Malme-3M) | GI50 (CAKI-1) | GI50 (RPMI-8226) | GI50 (SNB-19) | GI50 (SK-OV-3) | GI50 (HL-60) | GI50 (SK-MEL-5) | GI50 (LOX IMVI) | GI50 (NCI-H23) | GI50 (NCI/ADR-RES) | GI50 (HOP-92) | GI50 (NCI-H522) | GI50 (NCI-H460) | GI50 (786-0) | GI50 (ACHN) | GI50 (DU-145) | GI50 (SR)
1 | CCN(CC)CCNC(=O)C1COc2ccc(-c3cc(=O)c4ccccc4o3)cc2O1 (stereo not given) | 17.2 µM (inactive) | 20.6 µM (inactive) | 16 µM (inactive) | 20.5 µM (inactive) | 22.5 µM (inactive) | 20.2 µM (inactive) | 23 µM (inactive) | 13.2 µM (inactive) | 20.9 µM (inactive) | 17.2 µM (inactive) | 22 µM (inactive) | 19.2 µM (inactive) | 19.1 µM (inactive) | 18.2 µM (inactive) | 16.8 µM (inactive) |  |  |  | 
2 | O=C(CC(O)(C(F)(F)F)C(F)(F)F)C(CCCl)C(O)(C(F)(F)F)C(F)(F)F (stereo not given) | 24.9 µM (inactive) | 71.9 µM (inactive) | 24.7 µM (inactive) | 31.5 µM (inactive) | 16.7 µM (inactive) | 34.5 µM (inactive) | 45.6 µM (inactive) | 16.6 µM (inactive) | 23.2 µM (inactive) | 55.7 µM (inactive) | 33.2 µM (inactive) | 9.89 µM (inactive) |  | 34.4 µM (inactive) | 15 µM (inactive) | 32.7 µM (inactive) | 30.5 µM (inactive) | 39.7 µM (inactive) | 27.3 µM (inactive)
3 | CCc1cccc(C(C)C)c1NC(=O)CC1Sc2ccccc2NC1=O (stereo not given) | 60.7 µM (inactive) | 32.4 µM (inactive) | 83.6 µM (inactive) | 0.241 µM (active) | 48.5 µM (inactive) | 23.2 µM (inactive) | > 100 µM (inactive) | 24 µM (inactive) | 36.5 µM (inactive) | 45 µM (inactive) | 52.8 µM (inactive) |  | 39.5 µM (inactive) | 33.4 µM (inactive) | 71.4 µM (inactive) | 80 µM (inactive) | 51.6 µM (inactive) |  | 30.1 µM (inactive)
4 | N#CC(/C(=N/NC(=O)C(=O)NN)C(=O)NC12CC3CC(CC(C3)C1)C2)c1ccccc1 (stereo not given) | > 100 µM (inactive) | > 100 µM (inactive) | > 100 µM (inactive) | > 100 µM (inactive) | > 100 µM (inactive) | > 100 µM (inactive) | > 100 µM (inactive) | > 100 µM (inactive) | > 100 µM (inactive) | > 100 µM (inactive) | > 100 µM (inactive) |  | > 100 µM (inactive) | > 100 µM (inactive) | > 100 µM (inactive) | > 100 µM (inactive) | > 100 µM (inactive) |  | > 100 µM (inactive)
5 | COc1ccc(C2SCC(=O)N2NC(=O)c2ccncc2)cc1F (stereo not given) | > 100 µM (inactive) |  | > 100 µM (inactive) | > 100 µM (inactive) | > 100 µM (inactive) | > 100 µM (inactive) | > 100 µM (inactive) | > 100 µM (inactive) | > 100 µM (inactive) | > 100 µM (inactive) | > 100 µM (inactive) |  | > 100 µM (inactive) | > 100 µM (inactive) | > 100 µM (inactive) |  | > 100 µM (inactive) |  | > 100 µM (inactive)
6 | O=c1[nH]c(=O)n(COCc2ccccc2)c2ccccc12 | 13.1 µM (inactive) | 44.4 µM (inactive) |  | 62.7 µM (inactive) |  | 23 µM (inactive) | 89.9 µM (inactive) | 19.9 µM (inactive) | 27.7 µM (inactive) | 95.3 µM (inactive) |  | 20.5 µM (inactive) | 77.6 µM (inactive) |  | 40.9 µM (inactive) | > 100 µM (inactive) | 32.1 µM (inactive) | > 100 µM (inactive) | 37 µM (inactive)
7 | CCc1cccc(C(C)C)c1NC(=O)C(=O)C(CC(=O)Nc1ccc(Cl)c(Cl)c1)C(=O)OC (stereo not given) | > 100 µM (inactive) | > 100 µM (inactive) | > 100 µM (inactive) | > 100 µM (inactive) | 44 µM (inactive) | > 100 µM (inactive) | > 100 µM (inactive) | > 100 µM (inactive) | 55.8 µM (inactive) | > 100 µM (inactive) | > 100 µM (inactive) |  | 51.3 µM (inactive) | 78.9 µM (inactive) | 85.7 µM (inactive) | > 100 µM (inactive) | 78 µM (inactive) |  | > 100 µM (inactive)
8 | CCNc1ncnc2nn[nH]c12 | > 100 µM (inactive) | > 100 µM (inactive) | > 100 µM (inactive) | > 100 µM (inactive) | > 100 µM (inactive) | > 100 µM (inactive) | > 100 µM (inactive) | > 100 µM (inactive) | > 100 µM (inactive) | > 100 µM (inactive) | > 100 µM (inactive) | > 100 µM (inactive) | > 100 µM (inactive) | > 100 µM (inactive) |  | > 100 µM (inactive) | > 100 µM (inactive) | > 100 µM (inactive) | 
9 | CCOC(=O)/C(O)=C1\C(=O)N(C)C(=O)C1c1cccc(OC)c1 (stereo not given) | > 100 µM (inactive) | > 100 µM (inactive) | > 100 µM (inactive) | > 100 µM (inactive) | > 100 µM (inactive) | > 100 µM (inactive) | > 100 µM (inactive) | > 100 µM (inactive) | > 100 µM (inactive) | > 100 µM (inactive) | > 100 µM (inactive) | > 100 µM (inactive) | > 100 µM (inactive) | > 100 µM (inactive) | > 100 µM (inactive) |  |  |  | 
10 | CC(O)C(NC(=O)C(CS)NC(=O)C(CO)NC(=O)C(CCCCN)NC(=O)C(Cc1c[nH]c2ccccc12)NC(=O)C(Cc1ccc(O)cc1)NC(=O)C(CS)NC(=O)C(N)Cc1ccccc1)C(N)=O (stereo not given) | 25 µM (inactive) | > 25 µM (inactive) | > 25 µM (inactive) | > 25 µM (inactive) | > 25 µM (inactive) | 26.2 µM (inactive) | > 25 µM (inactive) | > 25 µM (inactive) | > 25 µM (inactive) | > 25 µM (inactive) | > 25 µM (inactive) | > 25 µM (inactive) |  | > 25 µM (inactive) | 22.2 µM (inactive) | > 25 µM (inactive) | > 25 µM (inactive) | > 25 µM (inactive) | > 25 µM (inactive)
11 | O=S(=O)(O)c1cc(/N=[N+](\[O-])c2ccc(/N=N/c3ccccc3)cc2S(=O)(=O)O)ccc1/C=C/c1ccc(/N=[N+](\[O-])c2ccc(/N=N/c3ccccc3)cc2S(=O)(=O)O)cc1S(=O)(=O)O | 72.8 µM (inactive) | > 100 µM (inactive) | > 100 µM (inactive) |  | > 100 µM (inactive) | > 100 µM (inactive) | > 100 µM (inactive) | > 100 µM (inactive) | > 100 µM (inactive) | > 100 µM (inactive) | > 100 µM (inactive) | > 100 µM (inactive) | > 100 µM (inactive) | > 100 µM (inactive) | > 100 µM (inactive) |  |  |  | 
12 | CC[C@@H](C(=O)[C@@H](C)[C@@H](O)[C@H](C)CCc1ccc(C)c(O)c1C(=O)O)[C@H]1O[C@](CC)([C@H]2CC[C@](O)(CC)[C@H](C)O2)C[C@@H]1C [LASALOCID A SODIUM] | 0.92 µM (active) | 1.1 µM (active) | 1.05 µM (active) | 1.84 µM (inactive) | 1.2 µM (inactive) | 1.3 µM (inactive) | 2.92 µM (inactive) | 0.348 µM (active) | 1.66 µM (inactive) | 2.77 µM (inactive) | 1.39 µM (inactive) |  | 1.69 µM (inactive) | 1.01 µM (active) | 2.04 µM (inactive) | 2.9 µM (inactive) | 2.64 µM (inactive) |  | 1.12 µM (inactive)
